Assay results reported in patent publication US20260027104A1, “NOVEL NAPHTHYL AND ISOQUINOLINE SULFONAMIDE DERIVATIVES” (Hoffmann-La Roche Inc., priority 2022, published 2026).

Target: human GPR17 short isoform (Homo sapiens, UniProt Q13304)
Experiment: hGPR17 cAMP assay (GPR17 cAMP Assay Protocol, antagonist mode)
Assay type: cell-based
Conditions: CHO-K1 cells stably expressing untagged human GPR17 short isoform; EC80 of agonist MDL29,951; forskolin 15 μM; 30 min, room temperature; TR-FRET cAMP readout
Experimental: GPR17 cAMP Assay Protocol:
CHO-K1 cells stably expressing vector containing untagged human GPR17 short isoform (Roche) were cultured at 37° C./5% CO2 in DMEM (Dulbecco's Modified Eagle Medium):F-12 (1:1) supplemented with 10% foetal bovine serum and 400 μg/ml Geneticin.
Changes in intracellular cyclic adenosine monophosphate (cAMP) levels were quantified using the Nano-TRF Detection Assay kit (Roche Diagnostics, Cat. No. 05214386001). This assay allows for direct cAMP quantification in a homogeneous solution. cAMP is detected based on time-resolved fluorescence energy transfer (TR-FRET) and competitive binding of ruthenylated cAMP and endogenous cAMP to an anti-cAMP monoclonal antibody labeled with AlexaFluor-700. The Ruthenium complex serves as the FRET donor and transfers energy to AlexaFluor-700. The FRET signal is inversely proportional to the cAMP concentration.
CHO-GPR17S cells were detached with Accutase and resuspended in assay buffer consisting of Hank's Balanced Salt Solution (HBSS), 10 mM HEPES (4-(2-hydroxyethyl) piperazine-1-ethanesulfonic acid solution) and 0.1% bovine serum albumin (pH 7.4). The cells were seeded in black 384-well plates (Corning) at a density of 10′000 cells/20 μl assay buffer until the addition of compounds.
Test antagonist compounds were serially diluted in dimethyl sulfoxide (DMSO) and spotted in 384-well plates. The compounds were then diluted in BSS buffer supplemented with an EC80 concentration of MDL29,951 (3-(2-Carboxy-4,6-dichloroindol-3-yl)propionic acid) (GPR17 agonist) plus 3-Isobutyl-1-methylxanthine (IBMX) (0.5 mM final concentration) and added to the cells at room temperature. Forskolin (15 μM final concentration) was added 5 minutes after the test compounds and the cells were incubated at room temperature for 30 minutes. The assay was stopped by adding cAMP detection mix (containing detergents for cell lysis) for 90 minutes at room temperature.
Cellular cAMP was measured using a Paradigm reader (Molecular Devices). The raw data was used to calculate the FRET signal based on the assay's P-factor as per cAMP kit instructions. The data was normalized to the maximal activity of a reference antagonist and dose response curves were fitted to the percent activity of the test compounds using a sigmoidal dose response model (Genedata Screener).
Results in the hGPR17 cAMP assay are provided for compounds of formula I in Table 1

human GPR17 short isoform, sequence (Q13304 29-367): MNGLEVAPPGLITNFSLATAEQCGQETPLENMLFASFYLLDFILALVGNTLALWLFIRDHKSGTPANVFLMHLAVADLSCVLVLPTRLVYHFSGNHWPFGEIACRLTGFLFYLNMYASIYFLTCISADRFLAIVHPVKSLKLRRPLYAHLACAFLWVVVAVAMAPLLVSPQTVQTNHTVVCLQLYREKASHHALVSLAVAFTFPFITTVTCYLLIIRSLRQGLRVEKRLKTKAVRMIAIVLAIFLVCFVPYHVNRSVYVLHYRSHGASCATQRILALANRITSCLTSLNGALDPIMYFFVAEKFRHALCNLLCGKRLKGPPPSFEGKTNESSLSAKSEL

SMILES | IC50
COc1nc(NS(=O)(=O)c2c[nH]c(=O)c3cc(Cl)ccc23)c(F)cc1OCC(F)F [Example 25, 7-chloro-N-[5-(2,2-difluoroethoxy)-3-fluoro-6-methoxy-2-pyridyl]-1-oxo-2H-isoquinoline-4-sulfonamide] | 50 nM
COc1nc(OCC(F)F)c(F)cc1NS(=O)(=O)c1c[nH]c(=O)c2nc(Cl)ccc12 [Example 29, 2-chloro-N-[6-(2,2-difluoroethoxy)-5-fluoro-2-methoxy-3-pyridyl]-8-keto-7H-1,7-naphthyridine-5-sulfonamide] | 30 nM
CN(C)c1ccc2c(S(=O)(=O)Nc3cc(F)c(CC#N)cc3F)cccc2n1 [Example 32, N-[4-(cyanomethyl)-2,5-difluoro-phenyl]-2-(dimethylamino)quinoline-5-sulfonamide] | 238 nM
COc1nc(OCC(F)F)c(F)cc1NS(=O)(=O)c1cc(=O)n(C)c2cc(Cl)ccc12 [Example 37, 7-chloro-N-[6-(2,2-difluoroethoxy)-5-fluoro-2-methoxy-3-pyridyl]-2-keto-1-methyl-quinoline-4-sulfonamide] | 246 nM
N#CCc1cc(F)c(NS(=O)(=O)c2cccc3c(Cl)cccc23)cc1F [Example 17, 5-chloro-N-[4-(cyanomethyl)-2,5-difluoro-phenyl]naphthalene-1-sulfonamide] | 88 nM
COc1nc(OCC(F)F)c(F)cc1NS(=O)(=O)c1cccc2nc(C)ccc12 [Example 33, N-[6-(2,2-difluoroethoxy)-5-fluoro-2-methoxy-3-pyridyl]-2-methyl-quinoline-5-sulfonamide] | 11 nM
COc1nc(OCC(F)F)c(F)cc1NS(=O)(=O)c1cccc2ccc(Cl)cc12 [Example 19, 7-chloro-N-[6-(2,2-difluoroethoxy)-5-fluoro-2-methoxy-3-pyridyl]naphthalene-1-sulfonamide] | 89 nM
COc1nc(OCC(F)F)c(F)cc1NS(=O)(=O)c1cc(=O)[nH]c2cc(Cl)ccc12 [Example 30, 7-chloro-N-[6-(2,2-difluoroethoxy)-5-fluoro-2-methoxy-3-pyridyl]-2-keto-1H-quinoline-4-sulfonamide] | 35 nM
COc1ncc(S(=O)(=O)Nc2cc(F)c(CC#N)cc2F)c2ccc(Cl)cc12 [Example 49, 7-chloro-N-[4-(cyanomethyl)-2,5-difluoro-phenyl]-1-methoxy-isoquinoline-4-sulfonamide] | 905 nM
COc1nc(OCC(F)F)c(F)cc1NS(=O)(=O)c1cncc2cc(Cl)ccc12 [Example 15, 7-chloro-N-[6-(2,2-difluoroethoxy)-5-fluoro-2-methoxy-3-pyridyl]isoquinoline-4-sulfonamide] | 11 nM
COc1nc(OCC(F)F)c(F)cc1NS(=O)(=O)c1cnc(N(C)C)c2cc(Cl)ccc12 [Example 41, 7-chloro-N-[6-(2,2-difluoroethoxy)-5-fluoro-2-methoxy-3-pyridyl]-1-(dimethylamino)isoquinoline-4-sulfonamide] | 61 nM
N#CCc1cc(F)c(NS(=O)(=O)c2c[nH]c(=O)c3cc(Cl)ccc23)cc1F [Example 21, 7-chloro-N-[4-(cyanomethyl)-2,5-difluoro-phenyl]-1-keto-2H-isoquinoline-4-sulfonamide] | 174 nM
COc1nc(NS(=O)(=O)c2cccc3nc(Cl)ccc23)nc(OC)c1OC(F)F [Example 51, 2-chloro-N-[5-(difluoromethoxy)-4,6-dimethoxy-pyrimidin-2-yl]quinoline-5-sulfonamide] | 448 nM
COc1nc(OCC(F)F)c(F)cc1NS(=O)(=O)c1cncc2c(C#N)c(Cl)ccc12 [Example 46, 7-chloro-8-cyano-N-[6-(2,2-difluoroethoxy)-5-fluoro-2-methoxy-3-pyridyl]isoquinoline-4-sulfonamide] | 253 nM
Cc1ccc(S(=O)(=O)Nc2cc(F)c(CC#N)cc2F)c2cccnc12 [Example 47, N-[4-(cyanomethyl)-2,5-difluoro-phenyl]-8-methyl-quinoline-5-sulfonamide] | 933 nM
COc1nc(OCC(F)F)c(F)cc1NS(=O)(=O)c1cccc2ccccc12 [Example 2, N-[6-(2,2-difluoroethoxy)-5-fluoro-2-methoxy-3-pyridyl]naphthalene-1-sulfonamide] | 85 nM
COc1nc(OCC(F)F)c(F)cc1NS(=O)(=O)c1cccc2c(Cl)cccc12 [Example 18, 5-chloro-N-[6-(2,2-difluoroethoxy)-5-fluoro-2-methoxy-3-pyridyl]naphthalene-1-sulfonamide] | 43 nM
COc1nc(OCC(F)F)c(F)cc1NS(=O)(=O)c1c[nH]c(=O)c2c(Cl)c(Cl)ccc12 [Example 39, 7,8-dichloro-N-[6-(2,2-difluoroethoxy)-5-fluoro-2-methoxy-3-pyridyl]-1-keto-2H-isoquinoline-4-sulfonamide] | 7 nM
COc1nc(OC(F)F)c(F)cc1NS(=O)(=O)c1c[nH]c(=O)c2cc(Cl)ccc12 [Example 23, 7-chloro-N-[6-(difluoromethoxy)-5-fluoro-2-methoxy-3-pyridyl]-1-keto-2H-isoquinoline-4-sulfonamide] | 19 nM

The remaining lines, values ahead:

IC50 | SMILES
174 nM | COc1nc(NS(=O)(=O)c2cccc3nc(Cl)ccc23)nc(OC)c1CC(F)F [Example 8, 2-chloro-N-[5-(2,2-difluoroethyl)-4,6-dimethoxy-pyrimidin-2-yl]quinoline-5-sulfonamide]
48 nM | COc1nc(OCC(F)F)c(F)cc1NS(=O)(=O)c1cccc2cc(Cl)ccc12 [Example 34, 6-chloro-N-[6-(2,2-difluoroethoxy)-5-fluoro-2-methoxy-3-pyridyl]naphthalene-1-sulfonamide]
423 nM | CN(C)c1ncc(S(=O)(=O)Nc2cc(F)c(CC#N)cc2F)c2ccc(Cl)cc12 [Example 42, 7-chloro-N-[4-(cyanomethyl)-2,5-difluoro-phenyl]-1-(dimethylamino)isoquinoline-4-sulfonamide]
955 nM | N#CCc1cc(F)c(NS(=O)(=O)c2c[nH]c(=O)c3nc(Cl)ccc23)cc1F [Example 28, 2-chloro-N-[4-(cyanomethyl)-2,5-difluoro-phenyl]-8-oxo-7H-1,7-naphthyridine-5-sulfonamide]
13 nM | COc1nc(OCC(F)F)c(F)cc1NS(=O)(=O)c1cccc2c(N(C)C)cccc12 [Example 40, N-[6-(2,2-difluoroethoxy)-5-fluoro-2-methoxy-3-pyridyl]-5-(dimethylamino)naphthalene-1-sulfonamide]
49 nM | COc1nc(OC(F)F)c(F)cc1NS(=O)(=O)c1cccc2nc(Cl)ccc12 [Example 6, 2-chloro-N-[6-(difluoromethoxy)-5-fluoro-2-methoxy-3-pyridyl]quinoline-5-sulfonamide]
415 nM | COc1nc(NS(=O)(=O)c2cncc3cc(Cl)ccc23)c(F)cc1OCC(F)F [Example 14, 7-chloro-N-[5-(2,2-difluoroethoxy)-3-fluoro-6-methoxy-2-pyridyl]isoquinoline-4-sulfonamide]
976 nM | N#CCc1cc(F)c(NS(=O)(=O)c2ccnc3cc(Cl)ccc23)cc1F [Example 53, 7-chloro-N-[4-(cyanomethyl)-2,5-difluoro-phenyl]quinoline-4-sulfonamide]
72 nM | CNc1cc(S(=O)(=O)Nc2cc(F)c(OCC(F)F)nc2OC)c2ccc(Cl)cc2n1 [Example 45, 7-chloro-N-[6-(2,2-difluoroethoxy)-5-fluoro-2-methoxy-3-pyridyl]-2-(methylamino)quinoline-4-sulfonamide]
32 nM | O=c1[nH]cc(S(=O)(=O)Nc2cc(F)c(OC(F)F)nc2OC(F)F)c2ccc(Cl)cc12 [Example 27, N-[2,6-bis(difluoromethoxy)-5-fluoro-3-pyridyl]-7-chloro-1-keto-2H-isoquinoline-4-sulfonamide]
315 nM | CNc1ncc(S(=O)(=O)Nc2cc(F)c(CC#N)cc2F)c2ccc(Cl)cc12 [Example 44, 7-chloro-N-[4-(cyanomethyl)-2,5-difluoro-phenyl]-1-(methylamino)isoquinoline-4-sulfonamide]
9 nM | COc1nc(OCC(F)F)c(F)cc1NS(=O)(=O)c1cccc2nc(Br)ccc12 [Example 54, 2-bromo-N-[6-(2,2-difluoroethoxy)-5-fluoro-2-methoxy-3-pyridyl]quinoline-5-sulfonamide]
45 nM | COc1nc(C2CC2)c(F)cc1NS(=O)(=O)c1cccc2nc(Cl)ccc12 [Example 4, 2-chloro-N-(6-cyclopropyl-5-fluoro-2-methoxy-3-pyridyl)quinoline-5-sulfonamide]
214 nM | COc1nc(OCC(F)F)c(F)cc1NS(=O)(=O)c1cccc2nc(C(F)F)ccc12 [Example 35, N-[6-(2,2-difluoroethoxy)-5-fluoro-2-methoxy-3-pyridyl]-2-(difluoromethyl)quinoline-5-sulfonamide]
